In PubChem BioAssay (NCI):
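Step 1: Grow cells in 96-well plates. Step 2: Expose to compound for 48 hours at 5 concentrations. Step 3: Interpolate endpoints linearly; if unreached, use highest concentration. Definition used: TGI = concentration required for complete inhibition of growth.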

How the values were obtained:
Experiment in all cases: NCI tumour cell line growth inhibition, 48 h
A549 NSCLC = system: A549 NSCLC
RXF-631 renal = system: RXF-631 renal
UACC-257 melanoma = system: UACC-257 melanoma
UO-31 renal = system: UO-31 renal
NCI-H226 lung = system: NCI-H226 lung
HL-60(TB) leukemia = system: HL-60(TB) leukemia
LXFL 529 NSCLC = system: LXFL 529 NSCLC
EKVX NSCLC = system: EKVX NSCLC
K-562 leukemia = system: K-562 leukemia
HCC-2998 colon = system: HCC-2998 colon
MOLT-4 leukemia = system: MOLT-4 leukemia
OVCAR-4 ovarian = system: OVCAR-4 ovarian
M14 melanoma = system: M14 melanoma
LOX IMVI melanoma = system: LOX IMVI melanoma
SNB-75 CNS = system: SNB-75 CNS
M19-MEL melanoma = system: M19-MEL melanoma
TK-10 renal = system: TK-10 renal
DMS 273 small cell lung = system: DMS 273 small cell lung
SF-539 CNS = system: SF-539 CNS
A498 renal = system: A498 renal
SK-MEL-28 melanoma = system: SK-MEL-28 melanoma
XF 498 CNS = system: XF 498 CNS
SK-MEL-2 melanoma = system: SK-MEL-2 melanoma
CCRF-CEM leukemia = system: CCRF-CEM leukemia
CAKI-1 renal = system: CAKI-1 renal
HCT-116 colon = system: HCT-116 colon
OVCAR-5 ovarian = system: OVCAR-5 ovarian
HCT-15 colon = system: HCT-15 colon
SW-620 colon = system: SW-620 colon
HOP-18 NSCLC = system: HOP-18 NSCLC
HOP-92 NSCLC = system: HOP-92 NSCLC
786-0 renal = system: 786-0 renal
SN12C renal = system: SN12C renal
DLD-1 colon = system: DLD-1 colon
SNB-78 CNS = system: SNB-78 CNS
SR leukemia = system: SR leukemia
SK-OV-3 ovarian = system: SK-OV-3 ovarian
HOP-62 NSCLC = system: HOP-62 NSCLC
SF-295 CNS = system: SF-295 CNS
NCI-H23 lung = system: NCI-H23 lung
MALME-3M melanoma = system: MALME-3M melanoma
SNB-19 CNS = system: SNB-19 CNS
IGROV1 ovarian = system: IGROV1 ovarian
OVCAR-3 ovarian = system: OVCAR-3 ovarian
OVCAR-8 ovarian = system: OVCAR-8 ovarian
KM12 colon = system: KM12 colon
HT29 colon = system: HT29 colon
NCI-H522 lung = system: NCI-H522 lung
NCI-H460 lung = system: NCI-H460 lung
DMS 114 small cell lung = system: DMS 114 small cell lung
SF-268 CNS = system: SF-268 CNS
COLO 205 colon = system: COLO 205 colon
RXF 393 renal = system: RXF 393 renal
SK-MEL-5 melanoma = system: SK-MEL-5 melanoma
U251 CNS = system: U251 CNS
UACC-62 melanoma = system: UACC-62 melanoma
KM20L2 colon = system: KM20L2 colon
ACHN renal = system: ACHN renal

O=C(NC1C=Nc2ccccc2NC1=O)c1ccccc1Cl (stereo not drawn)
TGI (A549 NSCLC): > 100 µM | TGI (RXF-631 renal): > 100 µM | TGI (UACC-257 melanoma): > 100 µM | TGI (UO-31 renal): > 100 µM | TGI (NCI-H226 lung): > 100 µM | TGI (HL-60(TB) leukemia): 54.1 µM | TGI (LXFL 529 NSCLC): > 100 µM | TGI (EKVX NSCLC): > 100 µM | TGI (K-562 leukemia): 52.7 µM | TGI (HCC-2998 colon): > 100 µM | TGI (MOLT-4 leukemia): 54.4 µM | TGI (OVCAR-4 ovarian): > 100 µM | TGI (M14 melanoma): > 100 µM | TGI (LOX IMVI melanoma): > 100 µM | TGI (SNB-75 CNS): > 100 µM | TGI (M19-MEL melanoma): > 100 µM | TGI (TK-10 renal): > 100 µM | TGI (DMS 273 small cell lung): > 100 µM | TGI (SF-539 CNS): > 100 µM | TGI (A498 renal): > 100 µM | TGI (SK-MEL-28 melanoma): > 100 µM | TGI (XF 498 CNS): > 100 µM | TGI (SK-MEL-2 melanoma): > 100 µM | TGI (CCRF-CEM leukemia): > 100 µM | TGI (CAKI-1 renal): > 100 µM | TGI (HCT-116 colon): > 100 µM | TGI (OVCAR-5 ovarian): > 100 µM | TGI (HCT-15 colon): > 100 µM | TGI (SW-620 colon): 29 µM | TGI (HOP-18 NSCLC): > 100 µM | TGI (HOP-92 NSCLC): > 100 µM | TGI (786-0 renal): > 100 µM | TGI (SN12C renal): > 100 µM | TGI (DLD-1 colon): > 100 µM | TGI (SNB-78 CNS): > 100 µM | TGI (SR leukemia): > 100 µM | TGI (SK-OV-3 ovarian): > 100 µM | TGI (HOP-62 NSCLC): > 100 µM | TGI (SF-295 CNS): > 100 µM | TGI (NCI-H23 lung): > 100 µM | TGI (MALME-3M melanoma): > 100 µM | TGI (SNB-19 CNS): > 100 µM | TGI (IGROV1 ovarian): > 100 µM | TGI (OVCAR-3 ovarian): > 100 µM | TGI (OVCAR-8 ovarian): > 100 µM | TGI (KM12 colon): > 100 µM | TGI (HT29 colon): > 100 µM | TGI (NCI-H522 lung): > 100 µM | TGI (NCI-H460 lung): > 100 µM | TGI (DMS 114 small cell lung): > 100 µM | TGI (SF-268 CNS): > 100 µM | TGI (COLO 205 colon): 52.7 µM | TGI (RXF 393 renal): 62.9 µM | TGI (SK-MEL-5 melanoma): > 100 µM | TGI (U251 CNS): > 100 µM | TGI (UACC-62 melanoma): > 100 µM | TGI (KM20L2 colon): > 100 µM | TGI (ACHN renal): > 100 µM
